Legend:
Format in all cases: biochemical
[1] = system: T1, trehalase (porcine kidney); experiment: Glycosidase inhibition (Table 2 panel)
T1 construct: purchased Sigma-Aldrich; host or cells: porcine kidney

[2] = system: α-D-glucosidase (human lysosome); experiment: Glycosidase inhibition (Table 2 panel); conditions: at 100 μM
[3] = system: α-D-glucosidase (rat intestinal maltase); experiment: Glycosidase inhibition (Table 2 panel); conditions: at 100 μM
α-D-glucosidase (rice) = α-D-glucosidase (rice) (Oryza sativa subsp. japonica, UniProt Q653V7); experiment: Glycosidase inhibition (Table 2 panel)
Chain of α-D-glucosidase (rice) (Q653V7 34-885): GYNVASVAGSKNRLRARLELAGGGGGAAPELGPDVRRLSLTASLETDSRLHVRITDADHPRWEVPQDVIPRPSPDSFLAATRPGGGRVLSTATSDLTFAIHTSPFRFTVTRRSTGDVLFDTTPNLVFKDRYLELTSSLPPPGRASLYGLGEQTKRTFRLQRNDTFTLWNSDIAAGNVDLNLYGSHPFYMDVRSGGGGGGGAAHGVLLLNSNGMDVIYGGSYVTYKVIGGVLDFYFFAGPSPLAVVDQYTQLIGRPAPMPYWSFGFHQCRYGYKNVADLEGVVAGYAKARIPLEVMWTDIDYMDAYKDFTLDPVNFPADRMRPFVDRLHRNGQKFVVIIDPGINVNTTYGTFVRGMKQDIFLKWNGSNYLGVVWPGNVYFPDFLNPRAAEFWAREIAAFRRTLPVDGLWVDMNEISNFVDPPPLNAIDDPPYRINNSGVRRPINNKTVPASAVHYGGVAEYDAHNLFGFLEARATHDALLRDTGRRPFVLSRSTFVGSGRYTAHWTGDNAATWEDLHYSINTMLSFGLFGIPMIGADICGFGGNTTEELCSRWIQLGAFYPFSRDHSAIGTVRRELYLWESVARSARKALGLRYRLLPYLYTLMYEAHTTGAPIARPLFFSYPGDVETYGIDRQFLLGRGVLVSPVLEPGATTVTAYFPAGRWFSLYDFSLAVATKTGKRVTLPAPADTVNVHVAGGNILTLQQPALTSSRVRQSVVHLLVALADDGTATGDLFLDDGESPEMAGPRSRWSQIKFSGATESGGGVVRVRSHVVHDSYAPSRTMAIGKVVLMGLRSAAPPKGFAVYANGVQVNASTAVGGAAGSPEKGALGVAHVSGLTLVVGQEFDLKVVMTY

[4] = system: T2, α-D-mannosidase (Jack bean); experiment: Glycosidase inhibition (Table 2 panel)
T2 construct: purchased Sigma-Aldrich; host or cells: Jack bean
Method in brief: (§1)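 Absorbance at 400 nm quantified para-nitrophenol liberated from […] para-nitrophenyl glycoside substrate, at the optimal pH for each enzyme […]. Na2CO3 […] terminated the reactions.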

[5] = system: α-L-rhamnosidase (P. decumbens); experiment: Glycosidase inhibition (Table 2 panel)
Method in brief: as §1

[6] = target: T3, β-D-galactosidase (bovine liver) (Bos taurus, UniProt F1MNT6); experiment: Glycosidase inhibition (Table 2 panel); conditions: at 100 μM
T3 sequence (F1MNT6 1-469): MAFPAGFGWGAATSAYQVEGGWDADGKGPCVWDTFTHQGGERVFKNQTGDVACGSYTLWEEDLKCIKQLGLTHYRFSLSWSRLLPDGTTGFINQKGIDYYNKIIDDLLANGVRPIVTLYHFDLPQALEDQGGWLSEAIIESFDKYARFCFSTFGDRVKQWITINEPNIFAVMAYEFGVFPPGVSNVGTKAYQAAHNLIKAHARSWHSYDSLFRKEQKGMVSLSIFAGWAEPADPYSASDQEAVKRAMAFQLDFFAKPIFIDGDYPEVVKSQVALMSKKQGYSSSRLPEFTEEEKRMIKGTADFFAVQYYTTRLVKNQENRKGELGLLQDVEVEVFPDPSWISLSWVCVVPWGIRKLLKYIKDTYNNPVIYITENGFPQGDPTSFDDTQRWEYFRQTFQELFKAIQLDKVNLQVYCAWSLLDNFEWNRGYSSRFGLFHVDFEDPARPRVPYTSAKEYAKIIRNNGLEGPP
Method in brief: as §1

β-D-glucosidase (almond) = experiment: Glycosidase inhibition (Table 2 panel)
Method in brief: as §1

[7] = target: T4, β-D-glucosidase (bovine liver) (Bos taurus, UniProt F1MNT6); experiment: Glycosidase inhibition (Table 2 panel)
T4 sequence (F1MNT6 1-469): T3 sequence (F1MNT6 1-469)
Method in brief: as §1

[8] = system: T5, amyloglucosidase (A. niger); experiment: Glycosidase inhibition (Table 2 panel)
T5 construct: purchased Sigma-Aldrich
From the text: (§2) The enzymes α-D-glucosidase (yeast), β-D-glucosidases (almond, bovine liver), α-D-galactosidase (coffee beans), β-D-galactosidase (bovine liver), α-D-mannosidase (Jack bean), β-D-mannosidase (snail), α-L-rhamnosidase (P. decumbens), α-L-fucosidase (bovine kidney), trehalase (porcine kidney), β-D-glucuronidases (E. coli, bovine liver), amyloglucosidase (A. niger), para-nitrophenyl glycosides, and various disaccharides were purchased from Sigma-Aldrich Co (St. Louis, MO, USA).
(§3) Brush border membranes were prepared from the rat small intestine according to the method of Kessler et al., and were assayed at pH 6.8 for rat intestinal maltase using maltose. […] The reaction was stopped by heating at 100 °C for 3 min. After centrifugation (600 g; 10 min), the resulting reaction mixture was added to the Glucose CII-test Wako (Wako Pure Chemical Ind., Osaka, Japan). […] Other glycosidase activities were determined using an appropriate para-nitrophenyl glycoside as substrate at the optimum pH of each enzyme. The reaction mixture contained the substrate ([…]) and the appropriate amount of enzyme. The reaction was stopped by the addition of Na2CO3 (400 μM). The released para-nitrophenol was measured spectrometrically at 400 nm. All reactions were run in methanol.

α-D-glucosidase (yeast) = target: T6, α-D-glucosidase (yeast) (Saccharomyces cerevisiae, UniProt P53341); experiment: Glycosidase inhibition (Table 2 panel); conditions: for inhibition at 100 µM: read-out: inhibition % α-D-Glucosidase Yeast
T6 construct: purchased Sigma-Aldrich
T6 sequence (P53341 whole entry): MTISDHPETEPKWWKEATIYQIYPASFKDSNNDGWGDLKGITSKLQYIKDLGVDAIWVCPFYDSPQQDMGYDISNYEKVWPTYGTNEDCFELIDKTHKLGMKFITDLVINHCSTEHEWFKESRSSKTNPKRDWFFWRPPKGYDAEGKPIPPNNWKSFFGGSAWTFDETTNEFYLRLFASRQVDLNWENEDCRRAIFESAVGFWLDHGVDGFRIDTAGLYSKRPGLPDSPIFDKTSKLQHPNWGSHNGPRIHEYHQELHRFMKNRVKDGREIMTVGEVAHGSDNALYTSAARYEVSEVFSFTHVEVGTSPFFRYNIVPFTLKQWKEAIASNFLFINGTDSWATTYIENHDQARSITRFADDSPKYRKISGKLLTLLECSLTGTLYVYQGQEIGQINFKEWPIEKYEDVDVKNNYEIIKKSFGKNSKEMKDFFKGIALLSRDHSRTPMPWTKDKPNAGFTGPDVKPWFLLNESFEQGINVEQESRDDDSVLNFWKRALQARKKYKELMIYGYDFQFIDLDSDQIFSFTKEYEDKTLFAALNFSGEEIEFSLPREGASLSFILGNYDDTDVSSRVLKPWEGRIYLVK
From the text: as §2, §3

[9] = system: T7, β-D-glucuronidase (E. coli); experiment: Glycosidase inhibition (Table 2 panel)
T7 construct: purchased Sigma-Aldrich
From the text: as §2, §3

[10] = system: β-D-glucosidase (human lysosome); experiment: Glycosidase inhibition (Table 2 panel); conditions: at 100 μM
[11] = system: β-D-galactosidase (E. coli); experiment: Glycosidase inhibition (Table 2 panel); conditions: at 100 μM
[12] = system: β-D-glucanase (T. Longibrachiatum); experiment: Glycosidase inhibition (Table 2 panel); conditions: at 100 μM
[13] = system: N-acetyl-β-D-hexosaminidase (rat intestine); experiment: Glycosidase inhibition (Table 3 panel); conditions: 1 mg/mL aqueous solution; run in water
Method in brief: (§4)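 Each glycosidase received […] para-nitrophenyl substrate in citrate/phosphate buffer at its optimum pH plus 1 mg/mL extract solution, at 27 °C. After stopping with glycine (pH 10.4) during the exponential phase, 405 nm absorbance was read; values are means of three replicates.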

[14] = system: α-D-glucosidase (rat intestine); experiment: Glycosidase inhibition (Table 3 panel); conditions: 1 mg/mL aqueous solution; run in water
Method in brief: as §4

[15] = system: glycosidases in the panel; experiment: Glycosidase inhibition, whole Table 2 panel
From the text: as §2
Brush border membranes were prepared from the rat small intestine according to the method of Kessler et al., and were assayed at pH 6.8 for rat intestinal maltase using maltose. For rat intestinal maltase, porcine kidney trehalase, and A. niger amyloglucosidase activities, the reaction mixture contained maltose ([…]) and the appropriate amount of enzyme, and the incubations were performed for 10–30 min at 37 °C. The reaction was stopped by heating at 100 °C for 3 min. After centrifugation (600 g; 10 min), the resulting reaction mixture was added to the Glucose CII-test Wako (Wako Pure Chemical Ind., Osaka, Japan). The absorbance at 505 nm was measured to determine the amount of the released D-glucose. Other glycosidase activities were determined using an appropriate para-nitrophenyl glycoside as substrate at the optimum pH of each enzyme. The reaction mixture contained the substrate ([…]) and the appropriate amount of enzyme. The reaction was stopped by the addition of Na2CO3 ([…]). The released para-nitrophenol was measured spectrometrically at 400 nm. All reactions were run in […].

[16] = system: T8, α-L-fucosidase (bovine kidney); experiment: Glycosidase inhibition (Table 2 panel); conditions: at 1000 μM
T8 construct: purchased Sigma-Aldrich; host or cells: bovine kidney
Method in brief: as §1

[17] = listed as of the 1000 μM series

Row | Structure (SMILES) | inhibition % Trehalase Porcine Kidney ([1]; at 100 μM) | inhibition % α-D-Glucosidase Human Lysosome [2] | inhibition % α-D-Glucosidase Rat Intestinal Maltase [3] | inhibition at 100 µM (α-D-glucosidase (rice)) [%] | inhibition % α-D-Mannosidase Jack Bean ([4]; at 100 μM) | inhibition % α-L-Rhamnosidase P. decumbens ([5]; at 100 μM) | inhibition at 100 µM [6] [%] | inhibition % β-D-Glucosidase Almond (β-D-glucosidase (almond); at 100 μM) | inhibition at 100 µM [7] [%] | inhibition % Amyloglucosidase A. niger ([8]; at 100 μM) | inhibition at 100 µM (α-D-glucosidase (yeast)) [%] | inhibition % β-D-Glucuronidase E. coli ([9]; at 100 μM) | inhibition % β-D-Glucosidase Human Lysosome [10] | inhibition % β-D-Galactosidase E. coli [11] | inhibition % β-D-Glucanase T. Longibrachiatum [12] | Percentage inhibition N-Acetyl-β-D-Hexosaminidase Rat Intestine [13] [%] | Percentage inhibition α-D-Glucosidase Rat Intestine [14] [%] | Inhibitory activity over the glycosidase panel, in words [15] | further results
1 | CC1(C)O[C@H]2O[C@H]3[C@@H]([C@H]2O1)N(Cc1cccc(B(O)O)c1)C[C@H]3O [meta 5, N-(3-Methylphenylboronic acid)-3,6-dideoxy-3,6-imino-1,2-O-isopropylidene-α-D-glucofuranose] | ^cNI ^d(0%) | ^cNI ^d(0.3%) | ^cNI ^d(0%) | 0 | ^cNI ^d(6.3%) | ^cNI ^d(0.6%) | 0 | ^cNI ^d(0%) | 23 | ^cNI ^d(0%) | 7.8 | ^cNI ^d(4.1%) | ^cNI ^d(0%) | ^cNI ^d(0%) | ^cNI ^d(0%) | 5 | 11.6 | abrogates inhibitory activity | –
2 | CC1(C)O[C@H]2O[C@H]3[C@@H]([C@H]2O1)N(Cc1cccc(O)c1)C[C@H]3O [meta 6] | ^cNI ^d(0%) | ^cNI ^d(3.3%) | ^cNI ^d(4.7%) | 0 | ^cNI ^d(9.5%) | ^cNI ^d(6.5%) | 15.5 | ^cNI ^d(6.3%) | 15.8 | ^cNI ^d(4.8%) | 0 | ^cNI ^d(0%) | ^cNI ^d(0%) | ^cNI ^d(0.8%) | ^cNI ^d(3.1%) | −0.7 | 4.8 | abrogates inhibitory activity | –
3 | OC[C@H](O)[C@@H]1[C@H](O)[C@H](O)CN1Cc1ccccc1B(O)O [ortho 4, N-(2-Methylphenylboronic acid)-1,4-dideoxy-1,4-imino-L-gulitol] | ^cNI ^d(0%) | ^cNI ^d(2.2%) | ^cNI ^d(0%) | 0 | ^cNI ^d(5.6%) | ^cNI ^d(4.9%) | 3.3 | ^cNI ^d(2.6%) | 3.3 | ^cNI ^d(0%) | 0 | ^cNI ^d(0%) | ^cNI ^d(0%) | ^cNI ^d(14%) | ^cNI ^d(0%) | −0.2 | 17.4 | – | inhibition % Trehalase Porcine Kidney ([1]; at 1000 μM): ^aNI ^b(0%); IC50 (α-D-glucosidase (rice); [17]): 622 µM; inhibition % α-D-Mannosidase Jack Bean ([4]; at 1000 μM): ^aNI ^b(0.4%); inhibition % α-L-Fucosidase Bovine Kidney [16]: ^aNI ^b(1.3%); inhibition % α-L-Rhamnosidase P. decumbens ([5]; at 1000 μM): ^aNI ^b(9.5%); inhibition % β-D-Glucosidase Almond (β-D-glucosidase (almond); at 1000 μM): ^aNI ^b(40.1%); inhibition at 1000 µM ([7]; at 1000 μM): 25.7%; inhibition % Amyloglucosidase A. niger ([8]; at 1000 μM): ^aNI ^b(0%); IC50 (α-D-glucosidase (yeast); [17]): 784 µM; inhibition % β-D-Glucuronidase E. coli ([9]; at 1000 μM): ^aNI ^b(31.8%)
4 | CC1(C)O[C@H]2O[C@H]3[C@@H]([C@H]2O1)N(Cc1ccccc1B(O)O)C[C@H]3O [ortho 5] | ^cNI ^d(4.9%) | ^cNI ^d(0%) | ^cNI ^d(0%) | 6.7 | ^cNI ^d(12.9%) | ^cNI ^d(0%) | 6.1 | ^cNI ^d(2.7%) | 13.4 | ^cNI ^d(4.9%) | 0 | ^cNI ^d(1.2%) | ^cNI ^d(3.5%) | ^cNI ^d(0%) | ^cNI ^d(5.2%) | 5.2 | 4.2 | abrogates inhibitory activity | –

Source: publication PMC12655172, “Borylated 5-Membered Ring Iminosugars: Synthesis and Biological Evaluation for Glycosidase Inhibition and Anticancer Properties for Application in Boron Neutron Capture Therapy (BNCT)—Part 2” (Pharmaceuticals, 2025)
